Legend:
rats [1] = test: Sub acute toxicity test, biochemistry, 15 days; format: in vivo
Protocol: (§1) According to one embodiment herein, the acute, sub acute and sub chronic toxicological tests are performed based on the standard protocols. For the acute sequential design procedure of LD-50, limit dose test were done and mortality rate is recorded up to 14 days. […] For the animals in the control groups, distilled water is administered by the same protocols. At the end of the time period, the rats are killed and the body specimens are collected for the determination of biochemical, hematological and pathological parameters.

rats [2] = settings: rat, in vivo
Protocol: According to one embodiment herein, the acute, sub acute and sub chronic toxicological tests are performed based on the standard protocols. For the acute sequential design procedure of LD-50, limit dose test were done and mortality rate is recorded up to 14 days. Sub acute and sub chronic toxicological tests are performed by an administration of 160 mg/kg (10 folds of therapeutics dose) for 21 and 52 days respectively. For the animals in the control groups, distilled water is administered by the same protocols. At the end of the time period, the rats are killed and the body specimens are collected for the determination of biochemical, hematological and pathological parameters.

rats [3] = test: Sub acute toxicity test, hematology, 15 days; format: in vivo
Protocol: as §1

Wistar rats = test: Post prandial blood sugar (BS) levels in STZ-induced diabetic rats; format: in vivo, rat; settings: oligosaccharide 16 mg/kg, metformin 15 mg/kg/day
Protocol: According to one embodiment herein, the oligosaccharide is administered to rats after purification and structural analysis of the oligosaccharide. The eight week old Wistar rats, weighing from 200-250 gm are purchased from Pasteur institute (Tehran, Iran). The animals are kept on a standard diet with free access to water and food throughout the study. All treatments and maintenance of the animals are carried out in accordance with the principles of laboratory animal care. Further diabetes is induced in the animals except the controls by a single intraperitoneal injection of STZ (60 mg/kg) freshly dissolved in citrate buffer of 5 mmol/L and a pH of 4.5. After an elapse of 48 hrs since the injection of streptozocin (STZ), the diabetes is confirmed by measuring the glucose levels in the blood samples. The blood samples are obtained from the retro-orbital sinus of the animals under diethyl ether-induced light anesthesia with GlucoDr Glucometer (Allmedicus; Germany). […] The first group comprises ten rats and is administered with the oligosaccharide. The second group comprises eight rats and the rats in the second group are injected with the citrate buffer. This group is called a negative control group. The amount of citrate buffer administered to the second group and the amount of oligosaccharide administered to the first group are same or equal. The rats in the oligosaccharide treated groups are given different doses (8-40 mg/kg) of the pure materials dissolved in distilled water twice daily for 21 days starting from the third day since the STZ injection. […] The molecules of glybenclamide or metformin are administered intraperitoneally or by oral gavage and stopped after three weeks. The water intake and urine volume are measured throughout the study. Twenty four hours after the administration of the last dose of oligosaccharide, the blood glucose is monitored in fasting and non-fasting states. The body and pancreas weights are compared. Oral glucose tolerance test, insulin tolerance test, gluconeogenesis inhibition test and alfa glucosidase inhibition tests are conducted. […] The untreated negative controls received no molecule, while the test group received oligosaccharide and the positive control received either metformin or glybenclamide. FIG. 2 illustrates a flow chart indicating the administration and testing of the anti-diabetic effect of oligosaccharide molecule, according to an embodiment herein. The process of administering and testing the antidiabetic effect of oligosaccharide molecule comprises purchasing eight week old male Wistar rats weighing 200-250 gm (201). The rats are purchased from Pasteus Institute (Tehran, Iran). The rats are kept on a standard diet with free access to water and food throughout the study. All the treatments and maintenance of the animals is carried out in accordance with the principles of laboratory animal care. Inducing diabetes by stretozotocin (STZ) 60 mg/kg injection (202). The diabetes is induced in all rats except in the rats in the control group by intraperitoneal injection of STZ freshly dissolved in 5 mmol/L citrate buffer (pH 4.5). The diabetes is confirmed 48 hrs after STZ infection by measuring blood glucose levels (203). The blood from rats is obtained from retro-orbital sinus of the animals under diethyl ether induced light anesthesia with GlucoDr Glucometer (Allmedicus; Germany). […] The rats in positive control, negative control and oligosaccharide treated group are divided into different groups (204). The rats in the negative control group are injected with citrate buffer for three weeks (205). The rats in the positive control group are injected with glybendamide and metformin for three weeks (206). The rats in the oligosaccharide group are injected with different concentration (8-40 mg/kg) of oligosaccharide for three weeks (207). The oligosaccharide is dissolved in distilled water and administered twice daily after STZ injection induced diabetes. […]

[4] = 21 days after treatment, glybenclamide 5 mg/kg/day
[5] = 30 days after withdrawal of the treatment, glybenclamide 5 mg/kg/day
[6] = before treatment (baseline), glybenclamide 5 mg/kg/day groups

SMILES: COC(=O)C1OC(O)C(O)C(O)C1OC1OC(C(=O)OC)C(OC2OC(C(=O)OC)C(OC3OC(C(=O)O)C(O)C(O)C3O)C(O)C2OC(C)=O)C(O)C1O (centres unmarked) [Oligosaccharide]
- ALP (rats [1]; 16 mg/kg): 442.69 ± 90.54 u/l
- ALT (rats [1]; 16 mg/kg): 146.33 ± 18.41 u/l
- AST (rats [1]; 16 mg/kg): 169.41 ± 17.5 u/l
- Alb (rats [1]; 16 mg/kg): 3.22 ± 0.04 g/dL
- CPK (rats [1]; 16 mg/kg): 1341.5 ± 311.12 u/l
- Chol (rats [1]; 16 mg/kg): 82.15 ± 22.11 mg/dL
- Cr (rats [1]; 16 mg/kg): 0.66 ± 0.02 mg/dL
- Glucose (rats [1]; 16 mg/kg): 113.61 ± 16.4 mg/dL
- LDH (rats [1]; 16 mg/kg): 2019.7 ± 390.4 u/l
- TG (rats [1]; 16 mg/kg): 98.41 ± 15.63 mg/dL
- Urea (rats [1]; 16 mg/kg): 54.71 ± 9.98 mg/dL
- Uric acid (rats [1]; 16 mg/kg): 1.62 ± 0.32 mg/dL
- ALP (rats [1]; 160 mg/kg): 351.37 ± 63.21 u/l
- ALT (rats [1]; 160 mg/kg): 142.31 ± 21.32 u/l
- AST (rats [1]; 160 mg/kg): 177.51 ± 24.2 u/l
- Alb (rats [1]; 160 mg/kg): 3.24 ± 0.05 g/dL
- CPK (rats [1]; 160 mg/kg): 1398.3 ± 115.5 u/l
- Chol (rats [1]; 160 mg/kg): 81.11 ± 14.31 mg/dL
- Cr (rats [1]; 160 mg/kg): 0.65 ± 0.04 mg/dL
- Glucose (rats [1]; 160 mg/kg): 109.3 ± 10.4 mg/dL
- LDH (rats [1]; 160 mg/kg): 2110.5 ± 504.7 u/l
- TG (rats [1]; 160 mg/kg): 97.99 ± 17.49 mg/dL
- Urea (rats [1]; 160 mg/kg): 54.87 ± 6.63 mg/dL
- Uric acid (rats [1]; 160 mg/kg): 1.58 ± 0.25 mg/dL
- abnormality in pathologic studies (rats [2]): no abnormality is observed
- HCT (rats [3]; 16 mg/kg): 42.8 ± 2.9%
- Hb (rats [3]; 16 mg/kg): 14.3 ± 0.6 g/dL
- MCH (rats [3]; 16 mg/kg): 18.1 ± 4.9 pg
- MCHC (rats [3]; 16 mg/kg): 33.8 ± 4.7 g/dL
- MCV (rats [3]; 16 mg/kg): 54.51 ± 3.2 fL
- PLT (rats [3]; 16 mg/kg): 9.4 ± 1.3 ×105/ml
- RBC (rats [3]; 16 mg/kg): 8.08 ± 1.3 ×106/ml
- WBC (rats [3]; 16 mg/kg): 10.5 ± 3.3 ×103/ml
- HCT (rats [3]; 160 mg/kg): 42.6 ± 1.1%
- Hb (rats [3]; 160 mg/kg): 14.1 ± 0.3 g/dL
- MCH (rats [3]; 160 mg/kg): 18.3 ± 3.9 pg
- MCHC (rats [3]; 160 mg/kg): 33.9 ± 5.1 g/dL
- MCV (rats [3]; 160 mg/kg): 55.9 ± 2.5 fL
- PLT (rats [3]; 160 mg/kg): 9.3 ± 2.1 ×105/ml
- RBC (rats [3]; 160 mg/kg): 7.98 ± 1.9 ×106/ml
- WBC (rats [3]; 160 mg/kg): 8.9 ± 2.9 ×103/ml
- BS levels mg/dl (SD), post prandial (Wistar rats; [4]): 150(21) mg/dl
- BS levels mg/dl (SD), post prandial (Wistar rats; [5]): 144(18) mg/dl
- BS levels mg/dl (SD), post prandial (Wistar rats; [6]): 364(41) mg/dl

SMILES: COc1ccc(Cl)cc1C(=O)NCCc1ccc(S(=O)(=O)NC(=O)NC2CCCCC2)cc1 [Glybenclamide, glybenclamide]
- BS levels mg/dl (SD), post prandial (Wistar rats; [4]): 250(63) mg/dl
- BS levels mg/dl (SD), post prandial (Wistar rats; [5]): 363(64) mg/dl
- BS levels mg/dl (SD), post prandial (Wistar rats; [6]): 360(41) mg/dl

SMILES: CN(C)C(=N)N=C(N)N [Metformin, metformin]
- BS levels mg/dl (SD), post prandial (Wistar rats; [4]): 261(49) mg/dl
- BS levels mg/dl (SD), post prandial (Wistar rats; [5]): 375(59) mg/dl
- BS levels mg/dl (SD), post prandial (Wistar rats; [6]): 375(57)(20) mg/dl

From US9296831B2, “Herbal extract composition for the treatment of diabetes and a method of extracting the same” (priority 2014, dated 2016)
